For orientation: GI50 means the concentration giving 50% growth inhibition. One may read the TGI as the concentration at which net growth stops. A high value points to less potent growth arrest.

The structures appear in SMILES notation.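 Compound exposure: 48 hours, 5 concentrations, 96-well plates. At the GI50, growth is halved. TGI is the concentration that stops growth completely.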

Test systems include CCRF-CEM leukemia; SF-539 CNS; RXF 393 renal; PC-3 prostate; ACHN renal; OVCAR-3 ovarian; HOP-92 NSCLC; UACC-257 melanoma; TK-10 renal; BT-549 breast.
Common to all, as to experiment: DTP human tumour cell line panel, 48 h

As for `Brc1ccc2[nH]cc(-c3nc(-c4c[nH]c5ncccc45)cs3)c2c1`, the GI50 with CCRF-CEM leukemia was 3990 nM; with SF-539 CNS, 5370 nM; in the assay with RXF 393 renal, 1640 nM; in the assay on PC-3 prostate, 2990 nM; in the assay with ACHN renal, 2660 nM; in the assay with OVCAR-3 ovarian, 5480 nM. In addition, the GI50 in the assay with HOP-92 NSCLC is 1980 nM; with UACC-257 melanoma, 2500 nM; in the assay with TK-10 renal, 5280 nM; in the assay with BT-549 breast, 6070 nM. Also, the TGI in the assay on CCRF-CEM leukemia was determined as 71.8 µM; in the assay on SF-539 CNS it was 23.9 µM; with RXF 393 renal, 8.56 µM; in the assay with PC-3 prostate, 13.5 µM; with ACHN renal it was 12.9 µM; with OVCAR-3 ovarian it was 18.6 µM. For the same molecule, the TGI in the assay on HOP-92 NSCLC came out at 6.89 µM; in the assay with UACC-257 melanoma, 7.26 µM; with TK-10 renal it was 17.8 µM; in the assay with BT-549 breast, 18.9 µM.

As to `O=[N+]([O-])c1ccc(Oc2nc(Nc3ccc(O[C@H]4CO[C@H]5[C@@H]4OC[C@@H]5O)c(Cl)c3)ncc2F)c(Cl)c1`, the GI50 was 718 nM in the assay on CCRF-CEM leukemia; 1550 nM in the assay with SF-539 CNS; 787 nM in the assay with RXF 393 renal; 1660 nM in the assay on PC-3 prostate; 790 nM with ACHN renal; 1400 nM in the assay on OVCAR-3 ovarian. For the same molecule, the GI50 with HOP-92 NSCLC is 807 nM; in the assay on UACC-257 melanoma, 1780 nM; in the assay on TK-10 renal it was 1080 nM; with BT-549 breast it was 1290 nM. Also, the TGI in the assay with CCRF-CEM leukemia worked out at 7.2 µM; with SF-539 CNS, 3.86 µM; in the assay with RXF 393 renal, 2.91 µM; in the assay with PC-3 prostate, 7.04 µM; in the assay with ACHN renal it was 4.55 µM; in the assay on OVCAR-3 ovarian, 5.83 µM. Moreover, the TGI was 2.65 µM in the assay with HOP-92 NSCLC, 4.27 µM in the assay on UACC-257 melanoma, 4.07 µM with TK-10 renal and 3.36 µM in the assay with BT-549 breast.

Consider `Oc1ccc(-c2nc3ccc4[nH]ncc4c3c3c2CCCC3)c(F)c1`, for which the GI50 was 2050 nM in the assay with CCRF-CEM leukemia; 2410 nM with SF-539 CNS; 1470 nM in the assay with RXF 393 renal; 2750 nM with PC-3 prostate; 2080 nM in the assay on ACHN renal; 2890 nM in the assay with OVCAR-3 ovarian. Besides, the GI50 is 2070 nM with HOP-92 NSCLC, 1840 nM in the assay with UACC-257 melanoma, 2000 nM in the assay on TK-10 renal and 1730 nM in the assay on BT-549 breast. Moreover, the TGI was 11.4 µM with CCRF-CEM leukemia; 10.2 µM in the assay with SF-539 CNS; 5.63 µM with RXF 393 renal; 14.8 µM with PC-3 prostate; 12.5 µM in the assay on ACHN renal; 7.85 µM in the assay on OVCAR-3 ovarian. The TGI in the assay on HOP-92 NSCLC came to 9.8 µM; in the assay on UACC-257 melanoma, 5.34 µM; in the assay on TK-10 renal, 9.53 µM; with BT-549 breast, 8.87 µM.

For the molecule `Cn1nc(-c2ccc(Cl)cc2)nc2c(=O)n(C)c(=O)nc1-2`, the GI50 is 1490 nM in the assay on CCRF-CEM leukemia; 1080 nM in the assay with SF-539 CNS; 781 nM in the assay with RXF 393 renal; 1190 nM with PC-3 prostate; 1130 nM with ACHN renal; 275 nM in the assay with OVCAR-3 ovarian. For the same molecule, the GI50 with HOP-92 NSCLC is 1720 nM; in the assay on UACC-257 melanoma, 794 nM; in the assay on TK-10 renal it was 6090 nM; in the assay on BT-549 breast it was 968 nM. For the same molecule, the TGI in the assay on CCRF-CEM leukemia was determined as 50 µM; in the assay with SF-539 CNS it was 2.29 µM; in the assay on RXF 393 renal, 1.57 µM; with PC-3 prostate, 7.9 µM; in the assay with ACHN renal, 3.1 µM; in the assay with OVCAR-3 ovarian it was 1.2 µM. In addition, the TGI in the assay with HOP-92 NSCLC worked out at 4.99 µM; with UACC-257 melanoma, 1.54 µM; with TK-10 renal, 24.8 µM; with BT-549 breast it was 1.94 µM.

Consider `NC1=NC(c2ccc(Cl)cc2)N(c2ccc(S(N)(=O)=O)cc2)C(N)=N1` (stereo not given), for which the TGI in the assay on CCRF-CEM leukemia, in the assay on SF-539 CNS, in the assay on RXF 393 renal, in the assay with PC-3 prostate, with ACHN renal and in the assay on OVCAR-3 ovarian was greater than 100 µM throughout. The TGI in the assay on HOP-92 NSCLC, with UACC-257 melanoma, in the assay on TK-10 renal and with BT-549 breast was greater than 100 µM in each case.

`COc1cccc(-c2nn(-c3ccccc3)cc2-c2ccnc(NCCNC(=O)Nc3cccc(C(F)(F)F)c3)c2)c1`: the GI50 is 2460 nM with CCRF-CEM leukemia; 1750 nM in the assay on SF-539 CNS; 1530 nM with RXF 393 renal; 2020 nM in the assay with PC-3 prostate; 2910 nM in the assay with ACHN renal; 1990 nM in the assay with OVCAR-3 ovarian. Moreover, the GI50 in the assay with HOP-92 NSCLC was 1460 nM; with UACC-257 melanoma, 2140 nM; in the assay on TK-10 renal, 2740 nM; in the assay on BT-549 breast, 3400 nM. In addition, the TGI in the assay on CCRF-CEM leukemia came to 7 µM; in the assay on SF-539 CNS, 3.32 µM; in the assay with RXF 393 renal, 3.03 µM; in the assay with PC-3 prostate, 5.24 µM; in the assay with ACHN renal, 10.4 µM; with OVCAR-3 ovarian, 4.32 µM. Moreover, the TGI in the assay on HOP-92 NSCLC was 3.28 µM; in the assay on UACC-257 melanoma it was 4.81 µM; in the assay on TK-10 renal, 11.9 µM; in the assay on BT-549 breast, 13.1 µM.
